Reference: ChEMBL document CHEMBL5252653, “Design, Synthesis, and Bioevaluation of Dexmedetomidine Prodrug” (ACS Med Chem Lett, 2023)

What was measured:
Rattus norvegicus [1] = species on record: Rattus norvegicus; test: Sedative activity in Sprague-Dawley rat assessed as onset time at 2 times of EC50; format: functional; conditions: dose 10-110 µg/ml; route iv
Rattus norvegicus [2] = test: Sedative activity in Sprague-Dawley rat at 10 to 110 microg/ml, iv administered as bolus dose by dixon analysis; format: functional
[3] = Toxicity in Sprague-Dawley rat assessed as survival rate at 2 times of EC50; conditions: in vivo, read-out: Activity
[4] = Cardiotoxicity in Sprague-Dawley rat assessed as decrease in blood pressure at 20 to 80 microg/ml, iv administered as bolus dose by ECG analysis; format: toxicity, organism-based; design: scale not given: the % may be the effect or the level left; conditions: in vivo, at 20 to 80 µg/mL, dose 20-80 µg/ml
Rattus norvegicus [5] = test: Sedative activity in Sprague-Dawley rat assessed as duration time at 2 times of EC50 administered as bolus dose; format: functional
[6] = Prodrug conversion in Sprague-Dawley rat assessed as dexmedetomidine release at 2 times of ED50; format: ADME; conditions: in vivo
[7] = Cardiotoxicity in Sprague-Dawley rat assessed as bradycardia at 20 to 80 microg/ml, iv administered as bolus dose by ECG analysis; format: toxicity, organism-based; conditions: in vivo, at 20 to 80 µg/mL, dose 20-80 µg/ml
[8] = Cardiotoxicity in Sprague-Dawley rat assessed as reduction in heart rate at 20 to 80 microg/ml, iv administered as bolus dose by ECG analysis; format: toxicity, organism-based; conditions: in vivo, dose 20-80 µg/ml
[9] = Cardiotoxicity in Sprague-Dawley rat assessed as decrease in blood pressure at 20 to 80 microg/ml, iv administered as bolus dose measured for 45 mins by ECG analysis; format: toxicity, organism-based; design: scale not given: the % may be the effect or the level left; conditions: in vivo, 0.75 h, at 20 to 80 µg/mL, dose 20-80 µg/ml
[10] = Prodrug conversion in Sprague-Dawley rat plasma assessed as dexmedetomidine release measured at 30 mins by HPLC analysis; format: ADME, cell-free; conditions: 0.5 h
[11] = Cardiotoxicity in Sprague-Dawley rat assessed as change in heart rate at 20 to 80 microg/ml, iv administered as bolus dose by ECG analysis; format: toxicity, organism-based; conditions: in vivo, at 20 to 80 µg/mL, dose 20-80 µg/ml
[12] = Prodrug conversion in Sprague-Dawley rat plasma assessed as dexmedetomidine release measured at 5 mins by HPLC analysis; format: ADME, cell-free
[13] = Prodrug conversion in Sprague-Dawley rat plasma assessed as dexmedetomidine release measured at 15 mins by HPLC analysis; format: ADME, cell-free; conditions: 0.25 h
[14] = Prodrug conversion in Sprague-Dawley rat plasma assessed as dexmedetomidine release measured at 2 mins by HPLC analysis; format: ADME, cell-free

SMILES | Time (Rattus norvegicus [1]) | ED50 (Rattus norvegicus [2]) | survival [3] | Activity [4] | Time (Rattus norvegicus [5]) | Drug metabolism [6] | Activity [7] | Activity [8] | Activity [9] | Drug metabolism [10] | Activity [11] | Drug metabolism [12] | Drug metabolism [13] | Drug metabolism [14]
CCCOC(=O)n1cnc([C@@H](C)c2cccc(C)c2C)c1 | 142.1 s | 0.0255 mg/kg | 100% | 28.23% | 2605.7 s | 31.7 µg/kg | – | – | – | – | – | – | – | –
CCOC(=O)OCn1cnc([C@@H](C)c2cccc(C)c2C)c1.Cl | 122.5 s | 0.0292 mg/kg | 100% | – | 2887.7 s | 34.47 µg/kg | -24.88% | Toxic | – | – | – | – | – | –
CCOC(=O)COC(=O)OCn1cnc([C@@H](C)c2cccc(C)c2C)c1.Cl | 68.2 s | 0.0468 mg/kg | 100% | – | 3177.7 s | 47.22 µg/kg | – | Toxic | 28.49% | – | – | – | – | –
CCC(=O)OC(C)n1cnc([C@@H](C)c2cccc(C)c2C)c1.Cl (stereo partly specified) | 159.8 s | 0.035 mg/kg | 100% | – | 2295.6 s | 41.58 µg/kg | – | Toxic | 32.17% | Metabolite_Detected | – | – | – | –
Cc1cccc([C@H](C)c2cn(COC(=O)C(C)(C)C)cn2)c1C.Cl | 157.9 s | 0.0551 mg/kg | 100% | 14.57% | 3091.8 s | 62.94 µg/kg | – | Toxic | – | – | -27.08% | – | – | –
CCCC(=O)OCn1cnc([C@@H](C)c2cccc(C)c2C)c1.Cl | 265 s | 0.0211 mg/kg | 100% | 20.07% | 1941.9 s | 25.15 µg/kg | – | Toxic | – | – | -29.92% | Metabolite_Detected | – | –
Cc1cccc([C@H](C)c2cncn2COP(=O)([O-])[O-])c1C.[Na+].[Na+] | 206.5 s | 0.0402 mg/kg | 100% | 15.15% | 3966.6 s | 45.5 µg/kg | – | – | – | – | – | – | – | –
Cc1cccc([C@H](C)c2cn(COC(=O)OC(C)C)cn2)c1C.Cl | 305.2 s | 0.0311 mg/kg | 100% | – | 2458.7 s | 35.33 µg/kg | – | – | – | – | – | – | – | –
COC(=O)OCn1cnc([C@@H](C)c2cccc(C)c2C)c1.Cl | 259.6 s | 0.0232 mg/kg | 100% | 16.35% | 2017.2 s | 28.68 µg/kg | – | – | – | – | – | – | – | –
CCC(=O)OCn1cnc([C@@H](C)c2cccc(C)c2C)c1.Cl | 184.4 s | 0.0268 mg/kg | 100% | 34.92% | 2325.8 s | 33.32 µg/kg | – | – | – | – | – | Metabolite_Detected | – | –
CCOC(=O)n1cnc([C@@H](C)c2cccc(C)c2C)c1.Cl | 289.1 s | 0.0213 mg/kg | 100% | – | 1971.4 s | 27.61 µg/kg | – | – | – | – | – | – | – | –
COC(=O)n1cnc([C@@H](C)c2cccc(C)c2C)c1.Cl | 219.5 s | 0.02 mg/kg | 100% | 17.35% | 2018.2 s | 25.77 µg/kg | – | – | – | – | – | – | Metabolite_Detected | –
Cc1cccc([C@H](C)c2cn(COC(=O)c3ccccc3)cn2)c1C.Cl | 204.1 s | 0.0595 mg/kg | 100% | – | 4457.7 s | 64.29 µg/kg | – | Toxic | – | Metabolite_Detected | – | – | – | –
Cc1cccc([C@H](C)c2cn(COC(=O)C3CCC3)cn2)c1C.Cl | 214.4 s | 0.034 mg/kg | 100% | – | 2841.2 s | 39.02 µg/kg | – | – | – | – | – | – | – | –
CC(=O)OCn1cnc([C@@H](C)c2cccc(C)c2C)c1.Cl | 252.4 s | 0.0321 mg/kg | 100% | – | 2483.6 s | 41.68 µg/kg | – | – | 29.66% | – | – | – | – | –
Cc1cccc([C@H](C)c2cn(C(=O)OC(C)C)cn2)c1C.Cl | 239.3 s | 0.0446 mg/kg | 100% | 22.4% | 3984.1 s | 55.39 µg/kg | -22.88% | Toxic | – | – | -22.88% | – | Metabolite_Detected | –
Cc1cccc([C@H](C)c2cn(COC(=O)C(C)C)cn2)c1C.Cl | 63.9 s | 0.0399 mg/kg | 100% | – | 3798.6 s | 47.44 µg/kg | – | – | – | – | – | Metabolite_Detected | – | –
Cc1cccc([C@H](C)c2cn(COC(=O)OC3CC3)cn2)c1C.Cl | 92.1 s | 0.0232 mg/kg | 100% | 37.25% | 2795.7 s | 26.53 µg/kg | – | – | – | – | – | Metabolite_Detected | – | Metabolite_Detected
CC(=O)OC(C)n1cnc([C@@H](C)c2cccc(C)c2C)c1.Cl (stereo partly specified) | 117 s | 0.0263 mg/kg | 100% | 14.67% | 2274.1 s | 32.61 µg/kg | – | – | – | Metabolite_Detected | – | – | – | –
Cc1cccc([C@H](C)c2cnc[nH]2)c1C [DEXMEDETOMIDINE] | 87.8 s | 0.0168 mg/kg | 100% | 43.55% | 3312 s | 28.38 µg/kg | -41.07% | – | – | – | -33.58% | – | – | –
Cc1cccc([C@H](C)c2cn(COC(=O)C3CC3)cn2)c1C.Cl | 195.2 s | 0.0298 mg/kg | 100% | – | 2410 s | 35.67 µg/kg | – | – | – | – | – | – | – | –
Cc1cccc([C@H](C)c2cn(C(=O)OCC(C)C)cn2)c1C.Cl | 151.9 s | 0.0359 mg/kg | 100% | 34.65% | 2802.9 s | 42.7 µg/kg | – | Toxic | – | – | – | – | – | –
COC(=O)COC(=O)OCn1cnc([C@@H](C)c2cccc(C)c2C)c1.Cl | 94.9 s | 0.0487 mg/kg | 100% | – | 3795.2 s | 50.93 µg/kg | – | Toxic | 31.3% | – | – | – | – | –
Cc1cccc([C@H](C)c2cn(COC(=O)OC3CCC3)cn2)c1C.Cl | 185 s | 0.0268 mg/kg | 100% | 34.79% | 3189.5 s | 29.48 µg/kg | – | Toxic | – | – | – | Metabolite_Detected | – | Metabolite_Detected
